In patent US20100298141A1, “SUBSTITUTED PYRIDINE N-OXIDE HERBICIDES” (E. I. DU PONT DE NEMOURS AND COMPANY, priority 2007, published 2010):

How the values were obtained:
redroot pigweed = assay: Test A pre-/postemergence greenhouse test; assay type: in vivo, Amaranthus retroflexus; conditions: for Pigweed plant response rating: 0 to 100 scale
Method in brief: (§1)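 Pots of loam–sand soil sown with the test species are sprayed preemergence on the soil surface; emerged seedlings (1–2 leaves, 2–10 cm) are sprayed postemergence at the same time. The vehicle is a non-phytotoxic solvent mixture with surfactant. Injury is scored visually after ~10 d in greenhouse.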

wheat [1] = assay: Test C pre-/postemergence test; assay type: in vivo, Triticum aestivum; conditions: Preemergence
Method in brief: (§2)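 Seeds were planted and treated preemergence with test chemical in a non-phytotoxic solvent mixture containing surfactant. Postemergence applications of the same formulation went onto plants 2 to 18 cm tall (1- to 4-leaf stage). A dash marks no test result.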

yellow nutsedge = assay: Test C pre-/postemergence test; assay type: in vivo, Cyperus esculentus; conditions: Preemergence
Method in brief: as §2

johnsongrass = assay: Test C pre-/postemergence test; assay type: in vivo, Sorghum halepense; conditions: Preemergence
Method in brief: as §2

duck salad = assay: Test C flooded paddy test; assay type: in vivo, Heteranthera limosa; conditions: Flood
Method in brief: (§3)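 In-water treatment: compound dosed into 3 cm flood over soil, water level unchanged throughout. Controls run alongside; visual assessment at day 13–15.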

corn = assay: Test C pre-/postemergence test; assay type: in vivo, Zea mays
Method in brief: as §2

morningglory = assay: Test C pre-/postemergence test; assay type: in vivo, Ipomoea coccinea; conditions: Preemergence
Method in brief: as §2

catchweed bedstraw = assay: Test C pre-/postemergence test; assay type: in vivo, Galium aparine; conditions: Preemergence
Method in brief: as §2

giant foxtail = assay: Test C pre-/postemergence test; assay type: in vivo, Setaria faberii; conditions: Preemergence
Method in brief: as §2

downy brome = assay: Test C pre-/postemergence test; assay type: in vivo, Bromus tectorum
Method in brief: as §2

velvetleaf [2] = assay: Test A pre-/postemergence greenhouse test; assay type: in vivo, Abutilon theophrasti; conditions: for Velvetleaf plant response rating: 0 to 100 scale
Method in brief: as §1

velvetleaf [3] = assay: Test C pre-/postemergence test; assay type: in vivo, Abutilon theophrasti; conditions: Preemergence
Method in brief: as §2

eastern black nightshade = assay: Test C pre-/postemergence test; assay type: in vivo, Solanum ptycanthum; conditions: Preemergence
Method in brief: as §2

woolly cupgrass = assay: Test C pre-/postemergence test; assay type: in vivo, Eriochloa villosa; conditions: Preemergence
Method in brief: as §2

wheat [4] = assay: Test A pre-/postemergence greenhouse test; assay type: in vivo, Triticum aestivum; conditions: for Wheat plant response rating: 0 to 100 scale
Method in brief: as §1

wild oat = assay: Test C pre-/postemergence test; assay type: in vivo, Avena fatua; conditions: Preemergence
Method in brief: as §2

rice = assay: Test C flooded paddy test; assay type: in vivo, Oryza sativa; conditions: Flood
Method in brief: as §3

[5] = Postemergence, 125 g ai/ha, 0 is no effect, 100 is complete control
[6] = Postemergence, 500 g ai/ha, 0 is no effect, 100 is complete control
[7] = Preemergence, 125 g ai/ha, 0 no effect, 100 complete control
[8] = Preemergence, 500 g ai/ha, 0 to 100 scale where 0 is no effect and 100 is complete control
[9] = 31 g ai/ha, scale 0 to 100 (0 no effect, 100 complete control)
[10] = 62 g ai/ha, scale 0 to 100, 0 no effect, 100 complete control, 13 to 15 days
[11] = 250 g ai/ha, scale 0 to 100 (0 no effect, 100 complete control)
[12] = 62 g ai/ha, Preemergence, scale 0 to 100
[13] = Preemergence, 31 g ai/ha, scale 0 to 100 (0 no effect, 100 complete control)
[14] = preemergence, 125 g ai/ha, scale 0 (no effect) to 100 (complete control)

**Q.** How did the “Pigweed plant response rating” value (redroot pigweed; [5]) turn out when `Cn1nc(C(F)(F)F)c(CS(=O)(=O)c2cccc[n+]2[O-])c1OCC(F)(F)F` [Compound 29] was run?
**A.** Its value is 70.

**Q.** And the “Pigweed plant response rating” value (redroot pigweed; [6])?
**A.** The value was 80.

**Q.** And the “Pigweed plant response rating” value (redroot pigweed; [7])?
**A.** The value was 100.

**Q.** What about the “Plant response rating, Pigweed” value (redroot pigweed; [8]) of the same compound?
**A.** Its value is 100.

**Q.** What about the “Wheat plant response rating” value (wheat [1]; 62 g ai/ha, scale 0 to 100) of the same compound?
**A.** Its value is 30.

**Q.** What about the “Plant response rating, Wheat” value (wheat [1]; [9]) of the same compound?
**A.** The value was 20.

**Q.** What about the “Nutsedge, Yellow plant response rating” value (yellow nutsedge; 62 g ai/ha, scale 0 to 100) of the same compound?
**A.** Its value is 100.

**Q.** What about the “Plant response rating, Nutsedge, Yellow” value (yellow nutsedge; [9]) of the same compound?
**A.** Its value is 80.

**Q.** What about the “Johnsongrass plant response rating” value (johnsongrass; 62 g ai/ha, scale 0 to 100) of the same compound?
**A.** Its value is 100.

**Q.** What about the “Plant response rating, Johnsongrass” value (johnsongrass; [9]) of the same compound?
**A.** Its value is 100.

**Q.** What about the “Plant response rating (0 to 100), Johnsongrass” value (johnsongrass; 250 g ai/ha) of the same compound?
**A.** The value was 100.

**Q.** What about the “Plant response rating, Ducksalad” value (duck salad; [9]) of the same compound?
**A.** Its value is 70.

**Q.** What about the “Plant response rating, Ducksalad” value (duck salad; [10]) of the same compound?
**A.** Its value is 80.

**Q.** What about the “Plant response rating, Ducksalad” value (duck salad; [11]) of the same compound?
**A.** The value was 90.

**Q.** What about the “Corn plant response rating” value (corn; [12]) of the same compound?
**A.** Its value is 80.

**Q.** And the “Plant response rating, Corn” value (corn; [13])?
**A.** The value was 0.

**Q.** And the “Plant response rating (0 to 100), Corn” value (corn; Preemergence, 250 g ai/ha)?
**A.** The value was 98.

**Q.** And the “Corn plant response rating” value (corn; [14])?
**A.** The value was 98.

**Q.** And the “Morningglory plant response rating” value (morningglory; 62 g ai/ha, scale 0 to 100)?
**A.** Its value is 10.

**Q.** What about the “Plant response rating, Morningglory” value (morningglory; [9]) of the same compound?
**A.** The value was 0.

**Q.** What about the “Galium plant response rating” value (catchweed bedstraw; 62 g ai/ha, scale 0 to 100) of the same compound?
**A.** Its value is 100.

**Q.** And the “Plant response rating, Galium” value (catchweed bedstraw; [9])?
**A.** Its value is 100.

**Q.** What about the “Plant response rating (0 to 100), Galium” value (catchweed bedstraw; 250 g ai/ha) of the same compound?
**A.** The value was 100.

**Q.** What about the “Foxtail, Giant plant response rating” value (giant foxtail; 62 g ai/ha, scale 0 to 100) of the same compound?
**A.** Its value is 100.

**Q.** What about the “Plant response rating, Foxtail, Giant” value (giant foxtail; [9]) of the same compound?
**A.** Its value is 100.

**Q.** And the “Plant response rating (0 to 100), Foxtail, Giant” value (giant foxtail; 250 g ai/ha)?
**A.** Its value is 100.

**Q.** And the “Bromegrass, Downy plant response rating” value (downy brome; [12])?
**A.** The value was 20.

**Q.** And the “Plant response rating, Bromegrass, Downy” value (downy brome; [13])?
**A.** The value was 0.

**Q.** What about the “Plant response rating (0 to 100), Bromegrass, Downy” value (downy brome; Preemergence, 250 g ai/ha) of the same compound?
**A.** The value was 60.

**Q.** And the “Bromegrass, Downy plant response rating” value (downy brome; [14])?
**A.** Its value is 60.

**Q.** What about the “Velvetleaf plant response rating” value (velvetleaf [2]; [5]) of the same compound?
**A.** The value was 40.

**Q.** What about the “Velvetleaf plant response rating” value (velvetleaf [2]; [6]) of the same compound?
**A.** Its value is 70.

**Q.** What about the “Velvetleaf plant response rating” value (velvetleaf [2]; [7]) of the same compound?
**A.** Its value is 40.

**Q.** What about the “Plant response rating, Velvetleaf” value (velvetleaf [2]; [8]) of the same compound?
**A.** The value was 100.

**Q.** And the “Velvetleaf plant response rating” value (velvetleaf [3]; 62 g ai/ha, scale 0 to 100)?
**A.** Its value is 100.

**Q.** What about the “Plant response rating, Velvetleaf” value (velvetleaf [3]; [9]) of the same compound?
**A.** The value was 30.

**Q.** What about the “Nightshade plant response rating” value (eastern black nightshade; 62 g ai/ha, scale 0 to 100) of the same compound?
**A.** Its value is 98.

**Q.** And the “Plant response rating, Nightshade” value (eastern black nightshade; [9])?
**A.** Its value is 75.

**Q.** And the “Cupgrass, Woolly plant response rating” value (woolly cupgrass; 62 g ai/ha, scale 0 to 100)?
**A.** Its value is 100.

**Q.** And the “Plant response rating, Cupgrass, Woolly” value (woolly cupgrass; [9])?
**A.** Its value is 80.

**Q.** And the “Plant response rating (0 to 100), Cupgrass, Woolly” value (woolly cupgrass; 250 g ai/ha)?
**A.** Its value is 100.

**Q.** And the “Wheat plant response rating” value (wheat [4]; [5])?
**A.** Its value is 50.

**Q.** And the “Wheat plant response rating” value (wheat [4]; [6])?
**A.** Its value is 60.

**Q.** And the “Wheat plant response rating” value (wheat [4]; [7])?
**A.** The value was 60.

**Q.** What about the “Plant response rating, Wheat” value (wheat [4]; [8]) of the same compound?
**A.** The value was 90.

**Q.** And the “Oat, Wild plant response rating” value (wild oat; 62 g ai/ha, scale 0 to 100)?
**A.** Its value is 50.

**Q.** What about the “Plant response rating, Oat, Wild” value (wild oat; [9]) of the same compound?
**A.** The value was 20.

**Q.** What about the “Plant response rating, Rice” value (rice; [9]) of the same compound?
**A.** Its value is 0.

**Q.** And the “Plant response rating, Rice” value (rice; [10])?
**A.** The value was 0.

**Q.** And the “Plant response rating, Rice” value (rice; 125 g ai/ha, scale 0 to 100, 0 no effect, 100 complete control, 13 to 15 days)?
**A.** The value was 40.

**Q.** What about the “Plant response rating, Rice” value (rice; [11]) of the same compound?
**A.** The value was 80.
